For series [1], the target named is T1, Sodium- and chloride-dependent glycine transporter 1 (Homo sapiens, UniProt P48067).
T1 sequence (P48067 whole entry): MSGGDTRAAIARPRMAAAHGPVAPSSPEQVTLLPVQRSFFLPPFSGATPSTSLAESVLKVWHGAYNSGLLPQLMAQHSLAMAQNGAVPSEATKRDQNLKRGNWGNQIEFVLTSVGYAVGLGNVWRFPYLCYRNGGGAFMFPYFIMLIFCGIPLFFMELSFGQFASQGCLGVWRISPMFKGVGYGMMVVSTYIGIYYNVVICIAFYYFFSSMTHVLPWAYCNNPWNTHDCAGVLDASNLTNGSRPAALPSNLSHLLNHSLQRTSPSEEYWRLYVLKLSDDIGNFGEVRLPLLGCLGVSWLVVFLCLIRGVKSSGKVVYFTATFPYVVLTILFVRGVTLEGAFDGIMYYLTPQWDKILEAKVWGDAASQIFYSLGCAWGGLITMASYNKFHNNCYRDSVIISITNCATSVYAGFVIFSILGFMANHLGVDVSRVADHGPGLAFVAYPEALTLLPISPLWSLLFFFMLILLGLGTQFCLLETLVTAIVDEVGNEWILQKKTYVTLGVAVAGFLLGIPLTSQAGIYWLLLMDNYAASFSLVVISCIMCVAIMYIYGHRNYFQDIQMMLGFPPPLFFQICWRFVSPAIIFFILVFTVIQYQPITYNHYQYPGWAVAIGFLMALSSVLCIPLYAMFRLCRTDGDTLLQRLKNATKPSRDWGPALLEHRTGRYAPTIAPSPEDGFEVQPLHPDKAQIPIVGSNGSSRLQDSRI
Kind of series: Displacement of [3H]glycine from human GlyT1 by radiometric assay. Background: Displacement assays read how much labelled ligand stays bound in the presence of the test substance.

For series [2], the target named is T2, Sodium- and chloride-dependent glycine transporter 2 (Homo sapiens, UniProt Q9Y345).
T2 sequence (Q9Y345 whole entry): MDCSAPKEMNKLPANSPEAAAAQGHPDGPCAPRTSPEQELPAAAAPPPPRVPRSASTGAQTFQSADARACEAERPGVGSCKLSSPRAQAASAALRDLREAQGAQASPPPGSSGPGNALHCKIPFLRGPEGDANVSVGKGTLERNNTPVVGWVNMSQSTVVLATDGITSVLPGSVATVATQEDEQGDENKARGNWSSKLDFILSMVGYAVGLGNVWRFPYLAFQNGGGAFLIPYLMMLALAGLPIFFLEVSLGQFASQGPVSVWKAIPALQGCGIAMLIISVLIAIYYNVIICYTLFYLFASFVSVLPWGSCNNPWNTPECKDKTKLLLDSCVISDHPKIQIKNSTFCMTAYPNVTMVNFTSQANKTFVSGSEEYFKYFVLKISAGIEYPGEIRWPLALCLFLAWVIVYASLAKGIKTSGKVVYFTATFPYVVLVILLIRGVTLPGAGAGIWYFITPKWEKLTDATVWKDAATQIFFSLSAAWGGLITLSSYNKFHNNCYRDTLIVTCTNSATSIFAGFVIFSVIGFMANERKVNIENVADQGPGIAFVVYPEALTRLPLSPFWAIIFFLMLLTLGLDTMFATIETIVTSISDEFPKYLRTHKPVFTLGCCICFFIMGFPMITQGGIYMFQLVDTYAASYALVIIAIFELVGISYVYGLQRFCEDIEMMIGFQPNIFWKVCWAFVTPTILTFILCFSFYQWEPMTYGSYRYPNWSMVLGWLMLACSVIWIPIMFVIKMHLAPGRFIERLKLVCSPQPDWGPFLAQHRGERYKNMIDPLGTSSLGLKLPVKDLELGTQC
Kind of series: Displacement of [3H]glycine from human GlyT2 by radiometric assay.

A short description of series [3]: Maximum achievable bioavailability in mouse microsomes. It counts as ADME, Liver, microsome. Particulars: read-out: Max Achievable Bioavailability.
The nature of series [4]: Maximum achievable bioavailability in human microsomes. The series is classed as ADME, Microsome. Conditions: human liver microsomes, read-out: Max Achievable Bioavailability.
A short description of series [5]: Clearance in mouse microsomes. It counts as ADME, Liver, Microsome.
A short description of series [6]: Clearance in human microsomes. Particulars: human liver microsomes. It counts as ADME, Microsome. (Microsomes from liver hold many membrane-bound enzymes, among them those of drug oxidation.)

Drawing on ChEMBL document CHEMBL1147765, “Discovery of N-(2-hydroxy-2-aryl-cyclohexyl) substituted spiropiperidines as GlyT1 antagonists with improved pharmacological profile” (Bioorg Med Chem Lett, 2006), this text covers EC50, Fh and microsomal CLint for 27 molecules.

A value given as a limit tells only on which side of the number the result lay.

Usually EC50 stands for the concentration at which the effect is half-maximal. A low value points to a more potent agent. On to `CC(C)[C@]1(O)CCCC[C@H]1N1CCC2(CC1)C(=O)NCN2c1ccccc1` (mixture of isomers), for which, in series [1], the concentration giving a half-maximal response (EC50) was more than 3000 nM. On to `CC(C)(C)[C@]1(O)CCCC[C@H]1N1CCC2(CC1)C(=O)NCN2c1ccccc1` (racemic), for which, in series [1], the 50% effective concentration (EC50) turned out to be 29000 nM. As for `O=C1NCN(c2ccccc2)C12CCN([C@@H]1CCOC[C@@]1(O)c1ccccc1)CC2` (racemic), the half-maximal effective concentration (EC50) in series [1] was 90 nM; in series [2], more than 100000 nM. In turn, `O=C1NCN(c2ccccc2)C12CCN([C@@H]1CCCC[C@@]1(O)Cc1ccccc1)CC2` (racemic) showed an EC50 in series [1] of 4400 nM.

As a reminder, the microsomal CLint is the rate of metabolic loss divided by the concentration. In the case of `CCCN1CNC(=O)C12CCN([C@@H]1CCCC[C@@]1(O)c1ccccc1)CC2` (racemic), the 50% effective concentration (EC50) in series [1] was 400 nM. Further, the Fh came to 81% in series [3] and 84% in series [4]. The values for the microsomal CLint in series [5] and in series [6] were 7 µL/min/mg and 5 µL/min/mg, respectively.

For `O=C1NCN(c2ccccc2)C12CCN([C@@H]1CCCC[C@@]1(O)c1ccccc1)CC2` (racemic), the 50% effective concentration (EC50) was determined as 44 nM in series [1] and 72000 nM in series [2]. As for `O=C1NCN(c2ccccc2)C12CCN([C@@H]1CCCC[C@@]1(O)c1ccc(Cl)c(Cl)c1)CC2` (racemic), the results for the half-maximal effective concentration (EC50) in series [1] and in series [2] were 173 nM and 6000 nM, respectively. Take `Cc1ccc([C@]2(O)CCCC[C@H]2N2CCC3(CC2)C(=O)NCN3c2ccccc2)cc1` (racemic): the EC50 in series [1] worked out at 140 nM; in series [2], 25000 nM. On to `O=C1NCN(c2ccccc2)C12CCN([C@H]1CCCC[C@@]1(O)c1ccccc1)CC2` (racemic), for which the EC50 came out at 56 nM in series [1] and 26000 nM in series [2].

As to `COc1ccc(N2CNC(=O)C23CCN([C@@H]2CCCC[C@@]2(O)c2ccc(Cl)cc2)CC3)cc1` (racemic), the EC50 in series [1] amounted to 99 nM; in series [2], 25000 nM. `O=C1NCN(c2ccccc2)C12CCN([C@@H]1CCCC[C@@]1(O)c1cccnc1)CC2` (racemic) gave a concentration for a half-maximal effect (EC50) in series [1] of 110 nM. On to `C[C@]1(O)CCCC[C@H]1N1CCC2(CC1)C(=O)NCN2c1ccccc1` (racemic), for which it took 9000 nM to reach a half-maximal effect in series [1] (EC50). As to `O=C1NCN(c2ccccc2)C12CCN([C@@H]1CCCC[C@@]1(O)c1cccc(Cl)c1)CC2` (racemic), the concentration for a half-maximal effect (EC50) in series [1] was 130 nM; in series [2], 21000 nM. As to `O=C1NCN(c2ccc(Cl)cc2)C12CCN([C@@H]1CCCC[C@@]1(O)c1ccc(F)cc1)CC2` (racemic), the 50% effective concentration (EC50) in series [1] was 15 nM; in series [2], 2500 nM. For `O=C1NCN(c2ccccc2)C12CCN([C@@H]1COCC[C@@]1(O)c1ccccc1)CC2` (racemic), the values for the EC50 in series [1] and in series [2] were 58 nM and 35000 nM, respectively. The like results for `O=C1NCN(c2ccccc2)C12CCN([C@@H]1CCCC[C@@]1(O)c1ccccn1)CC2` (racemic) were, in that order, 130 nM and more than 100000 nM. Turning to `COc1ccc([C@]2(O)CCCC[C@H]2N2CCC3(CC2)C(=O)NCN3c2ccccc2)cc1` (racemic), the EC50 turned out to be 261 nM in series [1] and 67000 nM in series [2]. Take `CCCN1CNC(=O)C12CCN([C@H]1CCCC[C@H]1c1ccccc1)CC2` (racemic): the microsomal CLint in series [5] came to 10 µL/min/mg; in series [6] it was 25 µL/min/mg.

As for `O=C1NCN(c2ccc(F)cc2)C12CCN([C@@H]1CCCC[C@@]1(O)c1ccc(Cl)cc1)CC2` (racemic), the EC50 in series [1] came to 24 nM; in series [2], 19000 nM. Consider `O=C1NCN(c2ccccc2)C12CCN([C@@H]1CCCC[C@@]1(O)c1ccncc1)CC2` (racemic), for which the concentration for a half-maximal effect (EC50) in series [1] is 62 nM; in series [2], more than 100000 nM.

For `O=C1NCN(c2ccccc2)C12CCN([C@@H]1CCCC[C@@]1(O)c1ccc(Cl)cc1)CC2` (racemic), the EC50 in series [1] is 80 nM; in series [2] it was 16000 nM. Take `COc1cccc([C@]2(O)CCCC[C@H]2N2CCC3(CC2)C(=O)NCN3c2ccccc2)c1` (racemic): the figures for the concentration giving a half-maximal response (EC50) in series [1] and in series [2] were 130 nM and 41000 nM, respectively.

For `Cc1ccccc1[C@]1(O)CCCC[C@H]1N1CCC2(CC1)C(=O)NCN2c1ccccc1` (racemic), the values for the concentration giving a half-maximal response (EC50) in series [1] and in series [2] were 50 nM and 70000 nM, respectively. Molecule `O=C1NCN(c2ccccc2)C12CCN([C@@H]1CCCC[C@@]1(O)C1CCCCC1)CC2` (racemic) had an EC50 in series [1] of 17000 nM. In series [6], `O=C1NCN(c2ccccc2)C12CCN([C@H]1CCCC[C@H]1c1ccccc1)CC2` (racemic) yielded an intrinsic metabolic clearance (microsomal CLint) of 68 µL/min/mg. Regarding `O=C1NCN(c2ccc(F)cc2)C12CCN([C@@H]1CCCC[C@@]1(O)c1ccc(F)cc1)CC2` (racemic), the EC50 in series [1] was determined as 24 nM; in series [2], 36000 nM. Further, the microsomal CLint in series [5] was determined as 102 µL/min/mg; in series [6], 92 µL/min/mg. Consider `O=C1NCN(c2ccccc2)C12CCN([C@@H]1CCCC[C@@]1(O)c1ccc(F)cc1)CC2` (relative stereo), for which the figures for the EC50 in series [1] and in series [2] were 40 nM and 57000 nM, respectively.
